In the NIST ThermoML archive (doi:10.1021/je101178u):
Several values for one entry are separate records, joined by “and”; a condition that tells them apart may be missing. Identical values can stand only once.

Conditions: 307.15 K, Fluid (supercritical or subcritical phases); for viscosity: vibrating wire; for mass density: Buoyancy - hydrostatic balance with magnetic suspension - one sinker

CC [ethane]
Conditions | mass density | viscosity
5348.1 kPa | – | 0.03109 mPa·s
5348.3 kPa | 282.116 kg/m3 | 0.03109 mPa·s
5348.5 kPa | 282.128 kg/m3 | 0.0311 mPa·s
5348.6 kPa | 282.136 kg/m3 | 0.0311 mPa·s
5367.9 kPa | 283.622 kg/m3 | 0.0314 mPa·s
5368.5 kPa | 283.666 kg/m3 | 0.0314 mPa·s
5369.1 kPa | 283.708 kg/m3 | 0.03144 mPa·s
5369.4 kPa | 283.73 kg/m3 | 0.03141 mPa·s
5648.1 kPa | 299.179 kg/m3 | 0.03389 mPa·s
5648.3 kPa | 299.189 kg/m3 | 0.03388 mPa·s
5648.7 kPa | 299.204 kg/m3 | 0.03392 mPa·s
5648.8 kPa | 299.208 kg/m3 | 0.03391 mPa·s
5673.9 kPa | 300.263 kg/m3 and 300.265 kg/m3 | 0.0342 mPa·s and 0.03418 mPa·s
5674 kPa | 300.27 kg/m3 | 0.03416 mPa·s
5674.2 kPa | 300.276 kg/m3 | 0.03417 mPa·s
6326.2 kPa | 319.788 kg/m3 | 0.03773 mPa·s
6328.2 kPa | 319.833 kg/m3 | 0.03774 mPa·s
6328.5 kPa | 319.84 kg/m3 | 0.03772 mPa·s
6328.9 kPa | 319.85 kg/m3 | 0.03776 mPa·s
6343.9 kPa | 320.187 kg/m3 | 0.03781 mPa·s
6344.7 kPa | 320.206 kg/m3 | 0.03783 mPa·s
6346 kPa | 320.235 kg/m3 | 0.03784 mPa·s
6347.2 kPa | 320.26 kg/m3 | 0.03783 mPa·s
7598.2 kPa | 341.1 kg/m3 | 0.04226 mPa·s
7602.2 kPa | 341.152 kg/m3 | 0.0423 mPa·s
7603 kPa | 341.162 kg/m3 | 0.0423 mPa·s
7700.1 kPa | 342.393 kg/m3 | 0.04256 mPa·s
7700.8 kPa | 342.402 kg/m3 | 0.04257 mPa·s
7701.7 kPa | 342.413 kg/m3 | 0.04257 mPa·s
9627.4 kPa | 361.481 kg/m3 | 0.04726 mPa·s
9628.1 kPa | 361.486 kg/m3 | 0.04728 mPa·s
9703.1 kPa | 362.086 kg/m3 | 0.04743 mPa·s
9703.6 kPa | 362.09 kg/m3 | 0.04742 mPa·s
9705 kPa | 362.101 kg/m3 | 0.04738 mPa·s
12507 kPa | 380.383 kg/m3 | 0.05257 mPa·s
12508 kPa | 380.388 kg/m3 | 0.05257 mPa·s
12509 kPa | 380.392 kg/m3 | 0.05255 mPa·s
12544 kPa | 380.585 kg/m3 | 0.05276 mPa·s
12545 kPa | 380.588 kg/m3 | 0.05268 mPa·s
12549 kPa | 380.613 kg/m3 | 0.05262 mPa·s
12554 kPa | 380.638 kg/m3 | 0.05258 mPa·s and 0.0526 mPa·s
12558 kPa | 380.661 kg/m3 | 0.05263 mPa·s
12559 kPa | 380.663 kg/m3 | 0.05263 mPa·s
15941 kPa | 396.414 kg/m3 | 0.05768 mPa·s
15981 kPa | 396.579 kg/m3 | 0.05768 mPa·s
15985 kPa | 396.595 kg/m3 | 0.05765 mPa·s
15986 kPa | 396.599 kg/m3 | 0.05767 mPa·s
15987 kPa | 396.601 kg/m3 | 0.05769 mPa·s
16874 kPa | 400.063 kg/m3 and 400.065 kg/m3 | 0.05888 mPa·s and 0.05882 mPa·s
16875 kPa | 400.066 kg/m3 and 400.067 kg/m3 and 400.068 kg/m3 | 0.05887 mPa·s [middle of 4 runs]
16876 kPa | 400.071 kg/m3 and 400.073 kg/m3 | 0.05885 mPa·s
16877 kPa | 400.075 kg/m3 | 0.05884 mPa·s
19746 kPa | 410.021 kg/m3 and 410.023 kg/m3 | 0.06238 mPa·s and 0.06241 mPa·s
19749 kPa | 410.03 kg/m3 | 0.06236 mPa·s
19750 kPa | 410.034 kg/m3 | 0.06242 mPa·s
19751 kPa | 410.039 kg/m3 | 0.0624 mPa·s
23209 kPa | 420.154 kg/m3 | 0.06633 mPa·s
23210 kPa | 420.157 kg/m3 and 420.156 kg/m3 | 0.06633 mPa·s and 0.0663 mPa·s and 0.06634 mPa·s
24530 kPa | 423.617 kg/m3 and 423.615 kg/m3 | 0.06776 mPa·s and 0.06778 mPa·s and 0.06781 mPa·s
24531 kPa | 423.619 kg/m3 | 0.06774 mPa·s and 0.06775 mPa·s
25875 kPa | 426.955 kg/m3 | 0.06913 mPa·s
25877 kPa | 426.961 kg/m3 | 0.06914 mPa·s
25879 kPa | 426.966 kg/m3 | 0.06906 mPa·s
25881 kPa | 426.969 kg/m3 | 0.06911 mPa·s
29053 kPa | 434.215 kg/m3 | 0.07235 mPa·s
29057 kPa | 434.225 kg/m3 | 0.07232 mPa·s
29063 kPa | 434.238 kg/m3 | –
